# Columns and labels:
# [1] = LNP hydrodynamic size, polydispersity index and zeta potential by Zetasizer; format: physicochemical; conditions: FLuc mRNA-loaded LNP
# Procedure: (§1) The Firefly luciferase (FLuc) reporter mRNA-loaded lipid nanoparticles (LNPs) were formulated by NANOASSEMBLR® IGNITE™. Briefly, the lipid, cholesterol, 1,2-dimyristoyl-rac-glycero-3-methoxypolyethylene glycol-2000 (DMG-PEG2000), and […] (DSPC) mixture was prepared in ethanolic solution at the % mole ratio of […]. Three units of FLuc mRNA was dissolved in 25 mM sodium acetate pH 5.0 buffer and one unit of lipid mixture were rapidly combined in the microfluidic mixing cartridge at an amine-to-phosphate (N/P) ratio constant at 6, and the instrument flow rate set at 12 mL/min. The mRNA-LNPs performed a 40-fold dilution of calcium and magnesium-free phosphate-buffered saline (PBS) to reach pH neutral. Then, LNPs were concentrated using Amicon® Ultra-15 Centrifugal Filter Unit.
# The mRNA-LNPs were characterized in terms of hydrodynamic size (z-average diameter), zeta potential, and polydispersity index by ZETASIZER™ PRO BLUE (MALVERN PANALYTICAL®). A QUANT-IT™ RIBOGREEN assay kit (THERMOFISHER®) was conducted to identify the mRNA concentration and encapsulation efficiency. In brief, mRNA-LNPs were diluted in equal volumes of Tris/EDTA (TE) buffer or 2% Triton X-100 in TE buffer. After that, a RIBOGREEN reagent was added to each sample and incubated at 37° C. in absence of light for 15 min. The fluorescence intensity (Ex/Em 480/520 nm) was detected on a TECAN™ Microplate reader. The encapsulation efficiency (E.E) can be calculated by the formula: […]
# [2] = mRNA encapsulation efficiency by RiboGreen assay; format: physicochemical; conditions: FLuc mRNA-loaded LNP made with the lipid; for Encap)-sulation (%: Table 1
# Procedure: as §1
# The mRNA-LNPs were characterized in terms of hydrodynamic size (z-average diameter), zeta potential, and polydispersity index by ZETASIZER™ PRO BLUE (MALVERN PANALYTICAL®). A QUANT-IT™ RIBOGREEN assay kit (THERMOFISHER®) was conducted to identify the mRNA concentration and encapsulation efficiency. In brief, mRNA-LNPs were diluted in equal volumes of Tris/EDTA (TE) buffer or 2% Triton X-100 in TE buffer. After that, a RIBOGREEN reagent was added to each sample and incubated at 37° C. in absence of light for 15 min. The fluorescence intensity (Ex/Em 480/520 nm) was detected on a TECAN™ Microplate reader. The encapsulation efficiency (E.E) can be calculated by the formula:
# E.E(%)=(Total mRNA concentration−Unencapsulated mRNA concentration)/(Total mRNA concentration)×100%
# [3] = test system: HEPG2 cells; assay: Cytotoxicity in HEPG2 cells (Cell Counting Kit-8); format: cell-based; conditions: FLuc mRNA-LNPs, 18 hours
# Procedure: (§2) To investigate the potential and cytotoxicity of mRNA-LNP made from novel lipids, FLuc mRNA (TRILINK®) was encapsulated into LNPs and transfected to the cell line. HEPG2 cells were maintained at 37° C. under 5% CO2 in a DMEM medium with 10% fetal bovine serum. Cells were seeded at 4×10^4 cells/well and treated with FLuc mRNA-LNPs for 18 hours while cell confluency reach 70%. To explore transfection efficiency, HEPG2 cells were treated with D-luciferin and mixed thoroughly for another incubation of 5 min at 37° C. The luminescence intensity was recorded using M200 Microplate Reader (TECAN®). Cell viability was evaluated by Cell Counting Kit-8 (SIGMA-ALDRICH®) and the absorbance was measured at 450 nm.
# [4] = test system: HEPG2 cells; assay: Transfection efficiency of FLuc mRNA-LNPs in HEPG2 cells (luminescence); format: cell-based; conditions: 18 hours
# Procedure: as §2
Structure (SMILES),LNP zeta potential (mV) ([1]; Table 1),PDI ([1]; Table 1),"LNP size (nm) ([1]; z-average diameter, Table 1)",Encap)-sulation (% [2] [%],LNP size (nm) ([1]; Table 2),LNP zeta potential (mV) ([1]; Table 2),PDI ([1]; Table 2),Cytotoxicity in HEPG2 [3],Encapsulation (%) ([2]; Table 2),"Transfection efficiency (relative to SM-102, %) [4] [%]"
"CCCCCCCCC(CCCCCCCC)OC(=O)CCO[C@H]1CN(CCO)C[C@H]1OCCC(=O)OC(CCCCCCCC)CCCCCCCC [Compound 1, di(heptadecan-9-yl)3,3′-(((3R,4S)-1-(2-hydroxyethyl)pyrrolidine-3,4-diyl)bis(oxy))dipropionate]",−7.06,0.026,73.80,98.5,–,–,–,–,–,–
CCCCCCCCC(CCCCCCCC)OC(=O)CCO[C@H]1CN(CCCO)C[C@H]1OCCC(=O)OC(CCCCCCCC)CCCCCCCC [Compound 2],−5.73,0.033,74.65,98.1,–,–,–,–,–,–
"CCCCCCCCC(CCCCCCCC)OC(=O)CCCCO[C@H]1CN(CCCO)C[C@H]1OCCCCC(=O)OC(CCCCCCCC)CCCCCCCC [Compound 3, di(heptadecan-9-yl)5,5′-(((3S,4R)-1-(3-hydroxypropyl)pyrrolidine-3,4-diyl)bis(oxy))dipentanoate]",6.98,0.016,98.84,97.92,–,–,–,–,–,–
"CCCCCCCCC(CCCCCCCC)OC(=O)CCCCO[C@H]1CN(CCO)C[C@H]1OCCCCC(=O)OC(CCCCCCCC)CCCCCCCC [Compound 4, di(heptadecan-9-yl)5,5′-(((3S,4R)-1-(2-hydroxyethyl)pyrrolidine-3,4-diyl)bis(oxy))dipentanoate]",1.03,0.015,79.20,98.43,–,–,–,–,–,–
"CCCCCCCCC(CCCCCCCC)OC(=O)CCO[C@H]1CN(CCCCO)C[C@H]1OCCC(=O)OC(CCCCCCCC)CCCCCCCC [Compound 7, di(heptadecan-9-yl)3,3′-(((3R,4S)-1-(4-hydroxybutyl)pyrrolidine-3,4-diyl)bis(oxy))dipropionate]",2.41,0.025,87.10,97.22,–,–,–,–,–,–
"CCCCCCCCC(CCCCCCCC)OC(=O)CCCCCO[C@H]1CN(CCCO)C[C@H]1OCCCCCC(=O)OC(CCCCCCCC)CCCCCCCC [Compound 11, di(heptadecan-9-yl)6,6′-(((3R,4S)-1-(3-hydroxypropyl)pyrrolidine-3,4-diyl)bis(oxy))dihexanoate]",10.95,0.014,80.71,97.58,80.71,10.95,0.014,— (The toxicity of compounds 11 and 14 is less than 10%),97.58,100
"CCCCCCCCC(CCCCCCCC)OC(=O)CCCCCO[C@H]1CN(CCCCCO)C[C@H]1OCCCCCC(=O)OC(CCCCCCCC)CCCCCCCC [Compound 12, di(heptadecan-9-yl)6,6′-(((3R,4S)-1-(5-hydroxypentyl)pyrrolidine-3,4-diyl)bis(oxy))dihexanoate]",7.83,0.039,78.35,96.99,–,–,–,–,–,–
"CCCCCCCCC(CCCCCCCC)OC(=O)CCCCCO[C@H]1CN(CCCCO)C[C@H]1OCCCCCC(=O)OC(CCCCCCCC)CCCCCCCC [Compound 13, di(heptadecan-9-yl)6,6′-(((3R,4S)-1-(4-hydroxybutyl)pyrrolidine-3,4-diyl)bis(oxy))dihexanoate]",12.45,0.046,81.29,97.39,–,–,–,–,–,–
"CCCCCCCCC(CCCCCC)C(=O)OCCCCCCO[C@H]1CN(CCCO)C[C@H]1OCCCCCCOC(=O)C(CCCCCC)CCCCCCCC (stereo partly drawn) [Compound 14, (((3S,4R)-1-(3-hydroxypropyl)pyrrolidine-3,4-diyl)bis(oxy))bis(hexane-6,1-diyl)bis(hexyldecanoate)]",–,–,–,–,–,–,–,— (The toxicity of compounds 11 and 14 is less than 10%),–,105
"CCCCCCCCCCC(CCCCCCCC)COC(=O)CCCCO[C@H]1CN(CCCO)C[C@H]1OCCCCC(=O)OCC(CCCCCCCC)CCCCCCCCCC (stereo partly drawn) [Compound 17, bis(2-octyldodecyl)5,5′-(((3R,4S)-1-(3-hydroxypropyl)pyrrolidine-3,4-diyl)bis(oxy))dipentanoate]",8.00,0.03,95.10,98.16,–,–,–,–,–,–
"CCCCCCCCCCC(CCCCCCCC)COC(=O)CCCCO[C@H]1CN(CCCCCO)C[C@H]1OCCCCC(=O)OCC(CCCCCCCC)CCCCCCCCCC (stereo partly drawn) [Compound 18, bis(2-octyldodecyl)5,5′-(((3R,4S)-1-(5-hydroxypentyl)pyrrolidine-3,4-diyl)bis(oxy))dipentanoate]",9.52,0.03,86.61,97.57,–,–,–,–,–,–
"CCCCCCCCCCC(CCCCCCCC)COC(=O)CCCCO[C@H]1CN(CCCCCCO)C[C@H]1OCCCCC(=O)OCC(CCCCCCCC)CCCCCCCCCC (stereo partly drawn) [Compound 19, bis(2-octyldodecyl)5,5′-(((3R,4S)-1-(6-hydroxyhexyl)pyrrolidine-3,4-diyl)bis(oxy))dipentanoate]",6.25,0.05,79.74,97.31,–,–,–,–,–,–
"CCCCCCC(CCCC)COC(=O)CCCCO[C@H]1CN(CCCO)C[C@H]1OCCCCC(=O)OCC(CCCC)CCCCCC (stereo partly drawn) [Compound 20, bis(2-butyloctyl) 5,5′-(((3R,4S)-1-(3-hydroxypropyl)pyrrolidine-3,4-diyl)bis(oxy))dipentanoate]",15.00,0.06,88.33,97.36,–,–,–,–,–,–
"CCCCCCC(CCCC)COC(=O)CCCCO[C@H]1CN(CCCCCO)C[C@H]1OCCCCC(=O)OCC(CCCC)CCCCCC (stereo partly drawn) [Compound 21, bis(2-butyloctyl) 5,5′-(((3R,4S)-1-(5-hydroxypentyl)pyrrolidine-3,4-diyl)bis(oxy))dipentanoate]",14.91,0.0532,93.39,98.87,–,–,–,–,–,–
"CCCCCCC(CCCC)COC(=O)CCCCO[C@H]1CN(CCCCCCO)C[C@H]1OCCCCC(=O)OCC(CCCC)CCCCCC (stereo partly drawn) [Compound 22, bis(2-butyloctyl) 5,5′-(((3R,4S)-1-(6-hydroxyhexyl)pyrrolidine-3,4-diyl)bis(oxy))dipentanoate]",10.78,0.05,148.20,98.18,–,–,–,–,–,–

# From US20250034088A1, “LIPIDS AND USES THEREOF” (TAIWAN BIO-MANUFACTURING CORPORATION, priority 2023, published 2025)
